In US6706664B1, “Benzoxazole compounds, process for the preparation thereof and herbicides” (UBE Industries, Ltd., priority 1999, dated 2004):

How the values were obtained:
Set-up in all cases: key: 0: normal development; 1: Less damaged; 2: Slightly damaged; 3: Moderately damaged; 4: Severely damaged; 5: All killed
Large crabgrass [1] = test: Soil treatment test for upland field; assay type: in vivo, Digitaria adscendens; conditions: 500 g/ha, glass house 25° C., 3 weeks
Summary of the method: (§1)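 Pre-emergence test: seeds sown in Ube alluvial soil in Wagner pots, soil surface sprayed with wettable powder in water with 0.05% surfactant at 500 g/ha. Plants kept in a glasshouse at average 25 °C for 3 weeks, then damage scored 0 (normal) to 5 (all killed).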

soybean = test: Soil treatment test for upland field; assay type: in vivo; conditions: 500 g/ha, glass house 25° C., 3 weeks
Summary of the method: as §1

cotton = test: Soil treatment test for upland field; assay type: in vivo; conditions: 500 g/ha, glass house 25° C., 3 weeks
Summary of the method: as §1

sugar beat [2] = test: Soil treatment test for upland field; assay type: in vivo; conditions: 500 g/ha, glass house 25° C., 3 weeks
Summary of the method: as §1

solgum [3] = test: Soil treatment test for upland field; assay type: in vivo; conditions: 500 g/ha, glass house 25° C., 3 weeks
Summary of the method: as §1

corn [4] = test: Soil treatment test for upland field; assay type: in vivo; conditions: 500 g/ha, glass house 25° C., 3 weeks
Summary of the method: as §1

wheat [5] = test: Soil treatment test for upland field; assay type: in vivo; conditions: 500 g/ha, glass house 25° C., 3 weeks
Summary of the method: as §1

Large crabgrass [6] = test: Foliar spread test for upland field; assay type: in vivo, Digitaria adscendens; conditions: foliar spray 500 ppm, 3 weeks, rank vs non-treated
Summary of the method: (§2)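 Seeds are planted in pots of volcanic ash soil and grown roughly 2 weeks under glass. Foliage then receives a uniform spray of compound at 500 ppm in water with 0.5% surfactant. Herbicidal damage is rated 0–5 after 3 weeks at an average 25° C.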

morning glory = test: Foliar spread test for upland field; assay type: in vivo, Ipomoea spps.; conditions: foliar spray 500 ppm, 3 weeks, rank vs non-treated
Summary of the method: as §2

livid amaranth [7] = test: Foliar spread test for upland field; assay type: in vivo, Amaranthus lividus; conditions: foliar spray 500 ppm, 3 weeks, rank vs non-treated
Summary of the method: as §2

annual bluegrass [8] = test: Soil treatment test for upland field; assay type: in vivo, Poa annua; conditions: 500 g/ha, glass house 25° C., 3 weeks
Summary of the method: as §1

sugar beat [9] = test: Foliar spread test for upland field; assay type: in vivo; conditions: foliar spray 500 ppm, 3 weeks, rank vs non-treated
Summary of the method: (§3)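 Post-emergence foliar spray, 500 ppm (wettable powder in water + 0.5% surfactant), on ~2-week-old plants grown in volcanic ash soil; glasshouse, avg 25° C, 3 wk; visual damage score 0–5.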

solgum [10] = test: Foliar spread test for upland field; assay type: in vivo; conditions: foliar spray 500 ppm, 3 weeks, rank vs non-treated
Summary of the method: as §3

corn [11] = test: Foliar spread test for upland field; assay type: in vivo; conditions: foliar spray 500 ppm, 3 weeks, rank vs non-treated
Summary of the method: as §3

wheat [12] = test: Foliar spread test for upland field; assay type: in vivo; conditions: foliar spray 500 ppm, 3 weeks, rank vs non-treated
Summary of the method: as §3

common lambsquartes = test: Foliar spread test for upland field; assay type: in vivo, Chenopodium album; conditions: foliar spray 500 ppm, 3 weeks, rank vs non-treated
Summary of the method: as §2

livid amaranth [13] = test: Soil treatment test for upland field; assay type: in vivo, Amaranthus lividus; conditions: 500 g/ha, glass house 25° C., 3 weeks
Summary of the method: as §1

green foxtail [14] = test: Soil treatment test for upland field; assay type: in vivo, Setaria viridis; conditions: 500 g/ha, glass house 25° C., 3 weeks
Summary of the method: as §1

barnyardgrass = test: Soil treatment test for upland field; assay type: in vivo, Echinochloa crusgalli; conditions: 500 g/ha, glass house 25° C., 3 weeks
Summary of the method: as §1

green foxtail [15] = test: Foliar spread test for upland field; assay type: in vivo, Setaria viridis; conditions: foliar spray 500 ppm, 3 weeks, rank vs non-treated
Summary of the method: as §2

annual bluegrass [16] = test: Foliar spread test for upland field; assay type: in vivo, Poa annua; conditions: foliar spray 500 ppm, 3 weeks, rank vs non-treated
Summary of the method: as §2

Compound	Effects Large crabgrass (Large crabgrass [1])	Effects Soybean (soybean)	Effects Cotton (cotton)	Effects Sugar beat (sugar beat [2])	Effects Solgum (solgum [3])	Effects Corn (corn [4])	Effects Wheat (wheat [5])	Effects Large crabgrass (Large crabgrass [6])	Effects Morning glory (morning glory)	Effects Livid amaranth (livid amaranth [7])	Effects Annual bluegrass (annual bluegrass [8])	Effects Sugar beat (sugar beat [9])	Effects Solgum (solgum [10])	Effects Corn (corn [11])	Effects Wheat (wheat [12])	Effects Common lambsquarters (common lambsquartes)	Effects Livid amaranth (livid amaranth [13])	Effects Green foxtail (green foxtail [14])	Effects Barnyardgrass (barnyardgrass)	Effects Green foxtail (green foxtail [15])	further results
CCC(Oc1cccc(OC(F)(F)F)c1)c1nc2cc([N+](=O)[O-])ccc2o1 (stereo not drawn) [Compound 450]	5	1	2	5	2	2	1	4	2	4	5	5	3	3	2	4	5	5	5	3	Effects Annual bluegrass (annual bluegrass [16]): 4
CCCC(Oc1ccc(F)c(C(F)(F)F)c1)c1nc2cc(C(F)(F)F)ccc2o1 (stereo not drawn) [Compound 199]	5	2	2	5	1	1	0	2	4	4	5	3	1	2	1	4	5	5	2	2	Effects Annual bluegrass (annual bluegrass [16]): 2
CCC(Oc1ccc(Cl)c(C(F)(F)F)c1)c1nc2cc(F)ccc2o1 (stereo not drawn) [Compound 441]	5	0	0	5	1	0	1	2	1	3	5	4	2	2	2	3	5	5	5	3	Effects Annual bluegrass (annual bluegrass [16]): 1
CCC(Oc1ccc(F)c(C(F)(F)F)c1)c1nc2cc(F)c(F)cc2o1 (stereo not drawn) [Compound 284]	5	2	1	5	2	2	2	4	3	5	5	4	3	3	2	4	5	5	5	4	Effects Annual bluegrass (annual bluegrass [16]): 3
CCCC(Oc1cccc(C(F)(F)F)c1)c1nc2cc(Cl)ccc2o1 (stereo not drawn) [Compound 142, 1-(5-chlorobenzoxazol-2-yl)-1-(3-(trifluoromethyl)phenoxy)butane]	5	3	0	5	1	1	1	3	3	4	5	3	2	3	3	4	5	5	3	2	Effects Annual bluegrass (annual bluegrass [16]): 3
